From paper PMC5564600 (Oncotarget, 2017)

Columns and labels:
Assay in all cases: biochemical
Type in all cases: binding
panel of 442 kinases [1] = biological target: T1, panel of 442 kinases (Homo sapiens, UniProt Q15835); settings: kinase GRK1; for remaining activity at 1 µM: read-out: % of control at 1 µM
T1 construct: purchased Ambit Biosciences (scanMAXX KINOMEscan)
T1 sequence (Q15835 1-563): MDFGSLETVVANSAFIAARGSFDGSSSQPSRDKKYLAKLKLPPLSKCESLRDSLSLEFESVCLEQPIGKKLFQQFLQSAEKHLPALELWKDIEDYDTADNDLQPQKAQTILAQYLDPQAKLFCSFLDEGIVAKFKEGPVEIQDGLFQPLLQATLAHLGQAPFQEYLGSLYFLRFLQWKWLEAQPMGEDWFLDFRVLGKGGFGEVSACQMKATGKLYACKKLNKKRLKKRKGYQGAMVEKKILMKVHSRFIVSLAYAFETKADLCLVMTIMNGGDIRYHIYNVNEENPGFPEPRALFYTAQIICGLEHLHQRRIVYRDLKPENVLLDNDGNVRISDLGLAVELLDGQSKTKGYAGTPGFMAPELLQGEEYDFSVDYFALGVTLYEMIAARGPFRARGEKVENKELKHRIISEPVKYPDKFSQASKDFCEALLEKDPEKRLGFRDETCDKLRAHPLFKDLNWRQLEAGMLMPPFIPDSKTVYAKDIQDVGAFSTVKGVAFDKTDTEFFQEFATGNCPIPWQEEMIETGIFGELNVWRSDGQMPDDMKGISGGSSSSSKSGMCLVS

panel of 442 kinases [2] = biological target: T2, panel of 442 kinases (Homo sapiens, UniProt O75914); settings: kinase PAK3; for remaining activity at 1 µM: read-out: % of control at 1 µM
T2 construct: purchased Ambit Biosciences (scanMAXX KINOMEscan)

panel of 442 kinases [3] = biological target: T3, panel of 442 kinases (Homo sapiens, UniProt Q8IW41); settings: kinase MAPKAPK5; for remaining activity at 1 µM: read-out: % of control at 1 µM
T3 construct: purchased Ambit Biosciences (scanMAXX KINOMEscan)
T3 sequence (Q8IW41 1-473): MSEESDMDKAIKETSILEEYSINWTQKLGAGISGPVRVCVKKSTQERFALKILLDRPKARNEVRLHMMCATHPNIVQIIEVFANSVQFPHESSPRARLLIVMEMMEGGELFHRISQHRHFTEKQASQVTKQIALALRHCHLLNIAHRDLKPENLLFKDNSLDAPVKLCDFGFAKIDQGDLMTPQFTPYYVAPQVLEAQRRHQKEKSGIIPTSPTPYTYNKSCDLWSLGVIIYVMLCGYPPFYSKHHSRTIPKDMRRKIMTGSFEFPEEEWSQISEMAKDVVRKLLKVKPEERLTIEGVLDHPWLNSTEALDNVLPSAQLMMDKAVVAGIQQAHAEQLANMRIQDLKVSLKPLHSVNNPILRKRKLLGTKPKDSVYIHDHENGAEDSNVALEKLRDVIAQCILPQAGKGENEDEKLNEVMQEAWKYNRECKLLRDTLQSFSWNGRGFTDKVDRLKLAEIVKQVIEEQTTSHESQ

panel of 442 kinases [4] = biological target: T4, panel of 442 kinases (Homo sapiens, UniProt Q2M2I8); settings: AAK1; for remaining activity at 1 µM: read-out: % of control at 1 µM
T4 construct: purchased Ambit Biosciences (scanMAXX KINOMEscan)

panel of 442 kinases [5] = biological target: T5, panel of 442 kinases (Homo sapiens, UniProt Q00536); settings: kinase PCTK1; for remaining activity at 1 µM: read-out: % of control at 1 µM
T5 construct: purchased Ambit Biosciences (scanMAXX KINOMEscan)

panel of 442 kinases [6] = biological target: T6, panel of 442 kinases (Homo sapiens, UniProt Q16288); settings: kinase TRKC; for remaining activity at 1 µM: read-out: TRKC (% of control at 1 µM)
T6 construct: purchased Ambit Biosciences (scanMAXX KINOMEscan)

panel of 442 kinases [7] = biological target: T7, panel of 442 kinases (Homo sapiens, UniProt Q9UF33); settings: EPHA6; for remaining activity at 1 µM: read-out: % of control at 1 µM
T7 construct: purchased Ambit Biosciences (scanMAXX KINOMEscan)
T7 sequence (Q9UF33 23-1036): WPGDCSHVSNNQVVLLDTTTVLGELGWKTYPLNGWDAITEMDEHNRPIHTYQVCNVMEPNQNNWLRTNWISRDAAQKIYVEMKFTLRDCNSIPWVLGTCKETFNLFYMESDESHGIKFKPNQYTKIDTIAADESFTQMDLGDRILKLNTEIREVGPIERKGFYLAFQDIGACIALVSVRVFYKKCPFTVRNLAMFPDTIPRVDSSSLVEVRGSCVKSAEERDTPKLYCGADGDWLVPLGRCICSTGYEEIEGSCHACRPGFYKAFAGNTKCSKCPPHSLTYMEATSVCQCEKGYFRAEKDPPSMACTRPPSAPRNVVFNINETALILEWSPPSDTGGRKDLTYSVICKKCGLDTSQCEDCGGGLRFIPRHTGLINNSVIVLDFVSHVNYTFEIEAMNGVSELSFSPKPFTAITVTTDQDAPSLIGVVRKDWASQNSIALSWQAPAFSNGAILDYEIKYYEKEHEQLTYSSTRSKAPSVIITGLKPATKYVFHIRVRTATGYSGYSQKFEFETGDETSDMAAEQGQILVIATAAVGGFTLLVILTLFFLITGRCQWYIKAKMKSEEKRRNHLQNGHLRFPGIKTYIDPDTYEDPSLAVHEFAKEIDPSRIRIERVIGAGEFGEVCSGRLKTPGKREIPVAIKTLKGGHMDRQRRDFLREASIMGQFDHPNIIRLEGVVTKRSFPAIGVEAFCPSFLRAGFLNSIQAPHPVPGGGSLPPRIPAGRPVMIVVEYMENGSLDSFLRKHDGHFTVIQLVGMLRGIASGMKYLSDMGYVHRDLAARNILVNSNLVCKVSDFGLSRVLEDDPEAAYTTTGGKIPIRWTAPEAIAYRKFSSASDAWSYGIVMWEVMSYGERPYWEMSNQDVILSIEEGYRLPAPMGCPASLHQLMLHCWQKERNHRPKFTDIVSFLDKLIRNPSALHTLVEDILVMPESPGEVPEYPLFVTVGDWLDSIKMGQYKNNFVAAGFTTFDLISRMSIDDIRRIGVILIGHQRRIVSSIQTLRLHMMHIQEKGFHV

panel of 442 kinases [8] = biological target: T8, panel of 442 kinases (Homo sapiens, UniProt P50750); settings: CDK9; for remaining activity at 1 µM: read-out: % of control at 1 µM
T8 construct: purchased Ambit Biosciences (scanMAXX KINOMEscan)

[9] = 10 µM, read-out: % of control at 10 µM

T2 sequence (O75914 whole entry): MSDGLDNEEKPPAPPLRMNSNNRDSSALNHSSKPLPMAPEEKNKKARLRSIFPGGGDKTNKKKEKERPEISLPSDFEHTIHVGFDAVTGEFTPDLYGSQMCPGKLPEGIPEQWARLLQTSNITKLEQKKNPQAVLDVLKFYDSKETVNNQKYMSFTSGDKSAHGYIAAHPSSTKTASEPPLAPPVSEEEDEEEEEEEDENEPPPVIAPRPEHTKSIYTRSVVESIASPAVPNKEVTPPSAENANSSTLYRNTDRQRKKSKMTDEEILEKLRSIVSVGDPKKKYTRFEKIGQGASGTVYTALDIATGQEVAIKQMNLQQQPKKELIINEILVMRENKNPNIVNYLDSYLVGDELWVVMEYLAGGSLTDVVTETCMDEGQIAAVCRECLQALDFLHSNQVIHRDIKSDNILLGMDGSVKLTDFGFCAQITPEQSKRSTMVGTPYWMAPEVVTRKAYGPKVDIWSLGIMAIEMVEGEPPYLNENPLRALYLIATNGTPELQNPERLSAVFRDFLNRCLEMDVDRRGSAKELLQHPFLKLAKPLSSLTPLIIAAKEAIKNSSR
T5 sequence (Q00536 whole entry): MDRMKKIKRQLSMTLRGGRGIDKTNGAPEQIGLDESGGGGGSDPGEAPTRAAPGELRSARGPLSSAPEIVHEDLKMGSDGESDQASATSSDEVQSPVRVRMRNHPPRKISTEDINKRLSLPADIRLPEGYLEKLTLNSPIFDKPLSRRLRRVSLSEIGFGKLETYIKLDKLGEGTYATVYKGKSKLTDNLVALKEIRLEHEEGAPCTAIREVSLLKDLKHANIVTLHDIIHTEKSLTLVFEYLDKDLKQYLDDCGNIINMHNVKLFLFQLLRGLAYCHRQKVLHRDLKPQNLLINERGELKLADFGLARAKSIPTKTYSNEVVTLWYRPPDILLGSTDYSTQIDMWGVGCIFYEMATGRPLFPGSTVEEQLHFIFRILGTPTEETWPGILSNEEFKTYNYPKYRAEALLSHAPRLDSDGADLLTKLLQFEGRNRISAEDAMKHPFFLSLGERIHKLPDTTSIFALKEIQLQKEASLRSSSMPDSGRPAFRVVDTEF
T6 sequence (Q16288 32-839): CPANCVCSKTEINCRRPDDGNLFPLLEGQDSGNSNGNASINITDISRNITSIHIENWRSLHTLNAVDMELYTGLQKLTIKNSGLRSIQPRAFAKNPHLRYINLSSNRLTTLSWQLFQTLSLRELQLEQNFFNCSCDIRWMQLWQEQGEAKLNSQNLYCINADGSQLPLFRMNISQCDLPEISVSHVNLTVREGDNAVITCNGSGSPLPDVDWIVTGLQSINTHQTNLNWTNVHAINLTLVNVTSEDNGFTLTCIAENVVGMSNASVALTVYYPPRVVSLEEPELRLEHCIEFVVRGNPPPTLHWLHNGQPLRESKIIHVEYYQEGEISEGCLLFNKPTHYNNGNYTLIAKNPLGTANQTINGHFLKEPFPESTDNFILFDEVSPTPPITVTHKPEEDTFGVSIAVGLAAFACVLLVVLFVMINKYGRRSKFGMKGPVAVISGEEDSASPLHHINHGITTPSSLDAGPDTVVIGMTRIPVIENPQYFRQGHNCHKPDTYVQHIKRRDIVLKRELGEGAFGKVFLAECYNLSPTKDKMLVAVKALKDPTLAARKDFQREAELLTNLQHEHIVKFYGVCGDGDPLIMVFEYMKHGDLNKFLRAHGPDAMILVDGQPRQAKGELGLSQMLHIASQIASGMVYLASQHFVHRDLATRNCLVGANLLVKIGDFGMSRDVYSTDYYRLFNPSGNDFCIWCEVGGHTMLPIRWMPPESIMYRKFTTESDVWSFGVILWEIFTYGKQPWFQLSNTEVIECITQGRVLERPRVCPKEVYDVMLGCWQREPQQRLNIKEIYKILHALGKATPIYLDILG
T4 sequence (Q2M2I8 whole entry): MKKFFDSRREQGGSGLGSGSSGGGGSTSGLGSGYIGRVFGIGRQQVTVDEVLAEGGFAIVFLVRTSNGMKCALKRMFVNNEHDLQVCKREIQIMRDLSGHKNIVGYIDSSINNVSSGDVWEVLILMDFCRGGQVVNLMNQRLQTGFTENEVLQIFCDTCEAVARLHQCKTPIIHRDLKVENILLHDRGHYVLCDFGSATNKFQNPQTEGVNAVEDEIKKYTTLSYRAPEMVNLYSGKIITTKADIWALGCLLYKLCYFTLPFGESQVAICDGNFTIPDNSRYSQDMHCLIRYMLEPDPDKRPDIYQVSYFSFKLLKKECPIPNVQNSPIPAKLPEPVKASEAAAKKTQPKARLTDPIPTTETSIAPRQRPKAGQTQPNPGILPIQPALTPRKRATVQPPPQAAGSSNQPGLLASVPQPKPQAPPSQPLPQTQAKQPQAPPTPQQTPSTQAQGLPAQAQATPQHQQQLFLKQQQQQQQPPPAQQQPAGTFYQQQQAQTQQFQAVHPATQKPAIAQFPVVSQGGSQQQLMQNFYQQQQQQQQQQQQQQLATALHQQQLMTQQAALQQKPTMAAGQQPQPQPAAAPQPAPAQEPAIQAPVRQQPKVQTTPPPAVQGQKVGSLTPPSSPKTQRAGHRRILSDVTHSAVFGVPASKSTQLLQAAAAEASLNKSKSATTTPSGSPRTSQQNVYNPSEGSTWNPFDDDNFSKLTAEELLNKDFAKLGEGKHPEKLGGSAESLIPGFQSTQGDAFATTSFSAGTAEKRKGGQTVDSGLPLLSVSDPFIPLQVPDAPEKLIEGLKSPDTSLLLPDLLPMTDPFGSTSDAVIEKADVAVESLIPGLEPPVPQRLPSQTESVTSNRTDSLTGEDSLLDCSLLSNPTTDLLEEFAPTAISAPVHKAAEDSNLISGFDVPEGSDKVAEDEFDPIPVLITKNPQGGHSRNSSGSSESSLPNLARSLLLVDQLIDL
T8 sequence (P50750 whole entry): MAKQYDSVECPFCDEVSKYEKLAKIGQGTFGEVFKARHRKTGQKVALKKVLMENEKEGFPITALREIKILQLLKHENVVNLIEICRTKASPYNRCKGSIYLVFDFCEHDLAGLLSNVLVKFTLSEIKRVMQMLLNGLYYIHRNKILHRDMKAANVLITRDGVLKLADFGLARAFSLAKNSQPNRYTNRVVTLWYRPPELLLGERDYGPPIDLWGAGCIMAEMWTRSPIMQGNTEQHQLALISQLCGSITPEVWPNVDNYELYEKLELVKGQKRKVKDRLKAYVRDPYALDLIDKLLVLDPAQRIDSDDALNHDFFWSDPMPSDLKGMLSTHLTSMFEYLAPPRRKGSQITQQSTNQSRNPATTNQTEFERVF

Molecule `Nc1cc(C(F)(F)F)c(-c2cc(N3CCOCC3)nc(N3CCOCC3)n2)cn1` [Buparlisib] has a remaining activity at 1 µM (panel of 442 kinases [1]) of 100%, a remaining activity at 10 µM (panel of 442 kinases [1]; [9]) of 100% and a remaining activity at 1 µM (panel of 442 kinases [2]) of 89%. It also gave a remaining activity at 10 µM (panel of 442 kinases [2]; [9]) of 100%, a remaining activity at 1 µM (panel of 442 kinases [3]) of 100% and a remaining activity at 10 µM (panel of 442 kinases [3]; [9]) of 100%. For the same molecule, the remaining activity at 1 µM (panel of 442 kinases [4]) was 97%, the remaining activity at 10 µM (panel of 442 kinases [4]; [9]) was 100% and the remaining activity at 1 µM (panel of 442 kinases [5]) was 79%. The remaining activity at 10 µM (panel of 442 kinases [5]; [9]) was 100%, the remaining activity at 1 µM (panel of 442 kinases [6]) was 76% and the remaining activity at 10 µM (panel of 442 kinases [6]; 10 µM, read-out: TRKC (% of control at 10 µM)) was 76%. It also gave a remaining activity at 1 µM (panel of 442 kinases [7]) of 93%, a remaining activity at 10 µM (panel of 442 kinases [7]; [9]) of 100% and a remaining activity at 1 µM (panel of 442 kinases [8]) of 85%. It also gave a remaining activity at 10 µM (panel of 442 kinases [8]; [9]) of 85%.

`COc1ncc(-c2ccc3nccc(-c4ccnnc4)c3c2)cc1NS(=O)(=O)c1ccc(F)cc1F` [Omipalisib] was tested, and the remaining activity at 1 µM (panel of 442 kinases [1]) was 81%, the remaining activity at 1 µM (panel of 442 kinases [2]) was 100% and the remaining activity at 1 µM (panel of 442 kinases [3]) was 100%. It also gave a remaining activity at 1 µM (panel of 442 kinases [4]) of 66%, a remaining activity at 1 µM (panel of 442 kinases [5]) of 96% and a remaining activity at 1 µM (panel of 442 kinases [6]) of 100%. It also gave a remaining activity at 1 µM (panel of 442 kinases [7]) of 100% and a remaining activity at 1 µM (panel of 442 kinases [8]) of 100%.

For `FC(F)c1nc2ccccc2n1-c1nc(N2CCOCC2)nc(N2CCOCC2)n1` [ZSTK474, 2-(difluoromethyl)-1-[4,6-di(4-morpholinyl)-1,3,5-triazin-2-yl]-1H-benzimidazole], the remaining activity at 1 µM (panel of 442 kinases [1]) was 100%, the remaining activity at 1 µM (panel of 442 kinases [2]) was 73% and the remaining activity at 1 µM (panel of 442 kinases [3]) was 100%. It also gave a remaining activity at 1 µM (panel of 442 kinases [4]) of 100%, a remaining activity at 1 µM (panel of 442 kinases [5]) of 95% and a remaining activity at 1 µM (panel of 442 kinases [6]) of 100%. The remaining activity at 1 µM (panel of 442 kinases [7]) was 88% and the remaining activity at 1 µM (panel of 442 kinases [8]) was 100%.

In the case of `Cn1c(=O)n(-c2ccc(C(C)(C)C#N)cc2)c2c3cc(-c4cnc5ccccc5c4)ccc3ncc21` [Dactolisib, 2-methyl-2-[4-(3-methyl-2-oxo-8-quinolin-3-yl-2,3-dihydroimidazo[4,5-c]quinolin-1-yl)-phenyl] propionitrile], the remaining activity at 1 µM (panel of 442 kinases [1]) is reported as 100%, the remaining activity at 1 µM (panel of 442 kinases [2]) is reported as 86% and the remaining activity at 1 µM (panel of 442 kinases [3]) is reported as 100%. It also gave a remaining activity at 1 µM (panel of 442 kinases [4]) of 84%, a remaining activity at 1 µM (panel of 442 kinases [5]) of 100% and a remaining activity at 1 µM (panel of 442 kinases [6]) of 85%. It also gave a remaining activity at 1 µM (panel of 442 kinases [7]) of 94% and a remaining activity at 1 µM (panel of 442 kinases [8]) of 91%.
